The values that follow are results of earlier work, collected in patent publication US12427127B2 (priority 2018, dated 2025).

Regarding `O=NN(CCCl)C(=O)NCCCl` [Carmustine, 1,3-bis (2-chloroethyl)-1-nitrosourea], the “Solubility in alcohol and lipids” value was “highly soluble”; the Solubility in water entry is “poorly soluble”.
